According to publication PMC7854658, “Structural basis for ligand recognition of the neuropeptide Y Y2 receptor” (Nature Communications, 2021):
Numbering of substitutions follows the chain as printed. Several values for one entry are separate records, joined by “and”; a condition that tells them apart may be missing. Equal values may be shown once.

Assays:
Test in all cases: NPY-induced IP accumulation (IP-One), mutant
Type in all cases: cell-based
Y2R mutant L183^4.60A = molecular target: T1, Y2R mutant L183^4.60A (Homo sapiens, UniProt P49146, L183A); settings: 1 μM antagonist, source data Fig. 3
T1 construct: expressed in transfected cells; host or cells: HEK293
T1 sequence (P49146 whole entry L183A): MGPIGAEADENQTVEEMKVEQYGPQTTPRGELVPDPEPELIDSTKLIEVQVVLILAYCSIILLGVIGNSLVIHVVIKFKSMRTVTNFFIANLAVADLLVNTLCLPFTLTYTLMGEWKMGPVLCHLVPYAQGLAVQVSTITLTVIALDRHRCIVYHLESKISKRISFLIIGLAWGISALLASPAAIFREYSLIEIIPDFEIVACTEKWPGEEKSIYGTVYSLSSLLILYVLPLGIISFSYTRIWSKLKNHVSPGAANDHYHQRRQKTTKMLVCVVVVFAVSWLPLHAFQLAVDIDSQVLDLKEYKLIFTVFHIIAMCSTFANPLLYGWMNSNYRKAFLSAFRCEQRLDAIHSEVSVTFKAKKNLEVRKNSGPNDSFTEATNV
Protocol: (§1) The plasmid hY2R_eYFP_pVitro2 encoding the WT Y2R and a fluorophore for investigating the receptor localization was used as template for the generation of receptor point mutations as previously described. Mutagenesis PCR was performed using the Phusion High-Fidelity Polymerase (Thermo Fisher Scientific, Waltham, MA, USA). […] The preparations of the plasmid DNA were performed using the Wizard plus Mini or Midi DNA purification kit (Promega, Madison, WI, USA).
(§2) To determine the contribution of residues to antagonist binding, IP-One accumulation assays (Cisbio, Codolet, France) were performed. HEK293 cells were seeded into six-well plates and transiently cotransfected with 3200 ng of receptor plasmid DNA and 800 ng of the chimeric G protein (Gα∆6qi4myr) to redirect the Gαi signaling pathway to the Gαq phospholipase C pathway. Transient transfection was carried out using Metafectene as transfection reagent according to the manufacturer’s protocol (Biontex, Munich, Germany) over night. The cells were then reseeded into white 384-well microplates (Greiner Bio-One, Kremsmünster, Austria) at a density of 15,000 cells per well and grown for additional 24 h.
(§3) All dilutions were performed in HBSS containing 20 mM LiCl (stimulation buffer) and DMSO with a final concentration of 0.01%.
(§4) To determine the amount of cellular IPs, the FRET acceptor (IP1-d2) and the FRET donor (anti-IP1-Cryptate) were reconstituted and diluted in lysis and detection buffer (1:20) as described in the manufacturer’s protocol. Three microliters of both solutions were added, and the cells were incubated on a tumbler for 60 min.

Y2R mutant V134^3.36A = molecular target: T2, Y2R mutant V134^3.36A (Homo sapiens, UniProt P49146, V134A)
T2 construct: expressed in transfected cells; host or cells: HEK293
T2 sequence (P49146 1-381 V134A): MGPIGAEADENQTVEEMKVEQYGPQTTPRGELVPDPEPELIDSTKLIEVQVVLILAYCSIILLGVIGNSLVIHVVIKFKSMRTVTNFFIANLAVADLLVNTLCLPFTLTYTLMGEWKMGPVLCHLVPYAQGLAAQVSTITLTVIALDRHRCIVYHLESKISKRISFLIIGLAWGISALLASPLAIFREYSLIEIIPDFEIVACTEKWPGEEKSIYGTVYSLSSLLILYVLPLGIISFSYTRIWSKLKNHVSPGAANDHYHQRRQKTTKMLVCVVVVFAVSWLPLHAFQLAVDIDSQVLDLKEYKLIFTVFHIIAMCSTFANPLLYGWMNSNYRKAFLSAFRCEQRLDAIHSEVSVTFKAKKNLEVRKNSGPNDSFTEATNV
Protocol: as §1, §2, §3, §4

Y2R mutant Y228^5.47A = molecular target: T3, Y2R mutant Y228^5.47A (Homo sapiens, UniProt P49146, Y228A); settings: 1 μM antagonist, source data Fig. 3
T3 construct: expressed in transfected cells; host or cells: HEK293
T3 sequence (P49146 whole entry Y228A): as the sequence (P49146 whole entry L183A) above, with A183L, Y228A counted along it
Protocol: as §1, §2, §3, §4

Y2R mutant W281^6.48T = molecular target: T4, Y2R mutant W281^6.48T (Homo sapiens, UniProt P49146, W281T)
T4 construct: expressed in transfected cells; host or cells: HEK293
T4 sequence (P49146 1-381 W281T): T2 sequence (P49146 1-381 V134A) with A134V, W281T
Protocol: as §1, §2, §3, §4

Y2R mutant V126^3.28A = molecular target: T5, Y2R mutant V126^3.28A (Homo sapiens, UniProt P49146, V126A)
T5 construct: expressed in transfected cells; host or cells: HEK293
T5 sequence (P49146 1-381 V126A): T2 sequence (P49146 1-381 V134A) with V126A, A134V
Protocol: as §1, §2, §3, §4

Y2R mutant Y219^5.38A = molecular target: T6, Y2R mutant Y219^5.38A (Homo sapiens, UniProt P49146, Y219A); settings: 1 μM antagonist, source data Fig. 3
T6 construct: expressed in transfected cells; host or cells: HEK293
T6 sequence (P49146 whole entry Y219A): as the sequence (P49146 whole entry L183A) above, with A183L, Y219A counted along it
Protocol: as §1, §2, §3, §4

Y2R mutant H285^6.52T = molecular target: T7, Y2R mutant H285^6.52T (Homo sapiens, UniProt P49146, H285T)
T7 construct: expressed in transfected cells; host or cells: HEK293
T7 sequence (P49146 1-381 H285T): T2 sequence (P49146 1-381 V134A) with A134V, H285T
Protocol: as §1, §2, §3, §4

[1] = 1 μM antagonist, source data Fig. 3
[2] = EC50(NPY + 1 μM antagonist)/EC50(NPY)
[3] = EC50 ratio (WT)/EC50 ratio (mutant)

Average EC50 ratio (Y2R mutant L183^4.60A): 10.3 | EC50 ratio (individual experiments) (Y2R mutant L183^4.60A): 6.3 and 14.3 | Average EC50 ratio (Y2R mutant V134^3.36A; [1]): 81.8 | EC50 ratio (individual experiments) (Y2R mutant V134^3.36A; [1]): 76.2 and 87.4 | EC50 ratio (Y2R mutant V134^3.36A; [2]): 76 and 87 | Ratio change (fold) (Y2R mutant V134^3.36A; [3]): 2 fold and 1.8 fold | Average EC50 ratio (Y2R mutant Y228^5.47A): 18.8 | EC50 ratio (individual experiments) (Y2R mutant Y228^5.47A): 10.5 and 27.0 | Average EC50 ratio (Y2R mutant W281^6.48T; [1]): 2.6 | EC50 ratio (individual experiments) (Y2R mutant W281^6.48T; [1]): 3.3 and 2.0 | EC50 ratio (Y2R mutant W281^6.48T; [2]): 3 and 2 | Ratio change (fold) (Y2R mutant W281^6.48T; [3]): 48 fold and 80 fold | Average EC50 ratio (Y2R mutant V126^3.28A; [1]): 302.6 | EC50 ratio (individual experiments) (Y2R mutant V126^3.28A; [1]): 285.2 and 320.0 | EC50 ratio (Y2R mutant V126^3.28A; [2]): 285 and 320 | Ratio change (fold) (Y2R mutant V126^3.28A; [3]): 0.6 fold and 0.5 fold | Average EC50 ratio (Y2R mutant Y219^5.38A): 97.9 | EC50 ratio (individual experiments) (Y2R mutant Y219^5.38A): 48.6 and 147.2 | Average EC50 ratio (Y2R mutant H285^6.52T; [1]): 2.7 | EC50 ratio (individual experiments) (Y2R mutant H285^6.52T; [1]): 3.5 and 1.9 | Ratio change (fold) (Y2R mutant H285^6.52T; [3]): 45 fold and 84 fold
Compound: N=C(N)NCCC[C@H](NC(=O)CC1(CC(=O)N2CCN(C3c4ccccc4NC(=O)c4ccccc43)CC2)CCCC1)C(=O)NCCn1c(=O)n(-c2ccccc2)n(-c2ccccc2)c1=O (stereo partly drawn) [BIIE0246]
